Measured values published in US6517839B1, “Methods for inducing interleukin-12 and a type1/Th1 T-cell response” (priority 1997, dated 2003).

System: THP-1 cells
Assay: IL-12 p40 release from THP-1 cells, measured by ELISA of 20 h supernatants
Format: cell-based, human
Conditions: for IL-12 p40 release: Example 7, FIG. 10, THP-1 20 h

| Substance | IL-12 p40 release (monocyte Western blot) (Example 4, FIG. 7, solubilized gel regions of Rotofor fraction #4, average of four experiments) | IL-12 p40 release |
| --- | --- | --- |
| 38 kDa lipoprotein: M. tuberculosis 38 kDa lipoprotein antigen; migrates as 39 kDa band | some contribution |  |
| recombinant 19 kDa expressed in E. coli: recombinant form of the M. tuberculosis 19 kDa antigen expressed in E. coli |  | failed to induce any IL-12 p40 |
| recombinant 19 kDa expressed in M. vaccae: recombinant form of the M. tuberculosis 19 kDa antigen expressed in a mycobacterial system, M. vaccae |  | stimulated IL-12 p40 release in an equivalent manner |
